# Reference: patent publication US8658697B2 (priority 2004, dated 2014)
# Like-named read-outs stand apart in the source and are kept apart here.
# Tests used:
# [1] = system: ST-336 drug resistant Tacaribe virus variants (DR#1-4); format: cell-based
# Junin virus = format: cell-based; conditions: read-out: Junin (Plaque reduction) EC50
# Tacaribe virus [2] = system: Tacaribe virus; parameters: species or system BALB/c mice; conditions: mouse, in vivo
# [3] = system: S. typhimurium tester strains TA7007, TA7006 and TA98
# Machupo virus = format: cell-based; conditions: read-out: Machupo (Plaque reduction) EC50
# [4] = in vivo
# Tacaribe virus [5] = format: cell-based; conditions: read-out: Tacaribe (Plaque reduction) EC50
# [6] = in vivo, 10 mg/kg
# [7] = mouse, in vivo, ip, 100 mg/kg/day
# Guanarito virus = format: cell-based; conditions: read-out: Guanarito (Plaque reduction) EC50
# Tacaribe virus [8] = format: cell-based; conditions: for EC50: read-out: Tacaribe (CPE) EC50
# Rotavirus = format: cell-based; conditions: read-out: Rotavirus (CPE) EC50
# Amapari virus = format: cell-based; conditions: read-out: Amapari (CPE) EC50
# Ebola virus = format: cell-based; conditions: read-out: Ebola (CPE) EC50
# Lassa virus = format: cell-based; conditions: read-out: Lassa (plaque reduction) EC50
# RSV-A = format: cell-based, Respiratory syncytial virus; conditions: read-out: RSV-A (CPE) EC50
# Candid-1 vaccine virus = format: cell-based, Junin virus (vaccine strain); conditions: read-out: Candid1 (CPE) EC50
# CMV = format: cell-based, cytomegalovirus; conditions: read-out: CMV (Elisa) EC50
# vaccinia virus = format: cell-based; conditions: read-out: Vaccinia (CPE) EC50
# SARS-CoV = format: cell-based; conditions: read-out: SARS (CPE) EC50
# intact Tacaribe virion [9] = format: binding, Tacaribe virus
# HSV-1 = format: cell-based, herpes simplex virus 1; conditions: read-out: HSV-1 (CPE) EC50
# LCMV = format: cell-based, lymphocytic choriomeningitis virus; conditions: read-out: LCMV (Elisa) EC50
# intact Tacaribe virion [10] = format: binding, Tacaribe virus; remark: listed apart in the source
# [11] = in vivo; remark: listed apart in the source
# Tacaribe virus [12] = format: cell-based
structure (smiles),measurement,setting,value
"CC(NC(=O)NNS(=O)(=O)c1ccc(OC(F)F)cc1)(C(F)(F)F)C(F)(F)F [ST-294, N-2-(1,1,1,3,3,3-hexafluoro-1-methylpropyl)-2-[(4-difluoromethoxyphenyl)sulfonyl]hydrazine-1-carboxamide]",susceptibility of drug resistant Tacaribe mutants (DR#1-4),[1],cross-resistance
same,EC50,Junin virus,300 nM
same,CC50,Vero cells,> 50000 nM
same,"efficacy (survival, delay in death)",Tacaribe virus [2],showed efficacy
same,Genotoxicity (Ames test),[3],negative
same,EC50,Machupo virus,300 nM
same,PK (rat/oral) ½ life,[4],2 h
same,Cmax (serum levels),"[4]; rat, po",6670 ng/mL
same,EC50,Tacaribe virus [5],100 nM
same,PK (newborn mouse/IP) Cmax,[6],2910 ng/mL
same,PK (newborn mouse/IP) ½ life,[6],3 h
same,tolerability,[7],well tolerated
same,EC50,Guanarito virus,1000 nM
same,in vitro antiviral concentration required to inhibit Tacaribe virus CPE (EC50),Tacaribe virus [8],0.066 µg/mL
same,EC50,Tacaribe virus [8],120 nM
CCC(NC(=O)NNS(=O)(=O)c1ccc(C)cc1)(C(F)(F)F)C(F)(F)F [ST-336],growth of ST-336 DR isolates in the presence of compound,[1],unaffected
same,EC50,Rotavirus,> 20000 nM
same,EC50,Junin virus,150 nM
same,EC50,Amapari virus,> 20000 nM
same,EC50,Ebola virus,> 20000 nM
same,EC50,Lassa virus,> 20000 nM
same,EC50,RSV-A,> 20000 nM
same,EC50,Machupo virus,150 nM
same,EC50,Tacaribe virus [5],100 nM
same,EC50,Candid-1 vaccine virus,62 nM
same,EC50,CMV,> 20000 nM
same,EC50,vaccinia virus,> 20000 nM
same,EC50,SARS-CoV,> 20000 nM
same,binding to intact virus (serial dilution),intact Tacaribe virion [9],binds with at least a slow Koff to intact protein present on Tacaribe virus
same,EC50,HSV-1,> 20000 nM
same,EC50,LCMV,> 20000 nM
same,binding to intact virions (dialysis),intact Tacaribe virion [10],binds intact virions with a very slow dissociation constant
same,pharmacokinetic (PK) properties in rodents,[11],poor pharmacokinetic (PK) properties
same,effect on Tacaribe virus yield,Tacaribe virus [12],no effect on virus yield
same,effect on Tacaribe virus yield by time of addition,Tacaribe virus [12],exerted its inhibitory effect only at the very early stage in the virus life cycle
same,EC50,Guanarito virus,300 nM
same,EC50,Tacaribe virus [8],55 nM
same,EC90,Tacaribe virus [8]; read-out: Tacaribe (CPE) EC90,125 nM
